# Measurements reported in the kinase profiling compilation of Christmann-Franck et al. (2016).
# How the values were obtained:
# Test in all cases: KINOMEscan competition binding
# Conditions in all cases: compound 10.0 µM; call rule not given here
# [1] = biological target: JAK1 JH2 pseudokinase (human) (UniProt P23458)
# DMPK (human) = DMPK (human) (UniProt Q09013)
# RIPK2 (human) = RIPK2 (human) (UniProt O43353)
# PRKACB (human) = PRKACB (human) (UniProt P22694)
# PHKG1 (human) = PHKG1 (human) (UniProt Q16816)
# TXK (human) = TXK (human) (UniProt P42681)
# PHKG2 (human) = PHKG2 (human) (UniProt P15735)
# MAPK9 (human) = MAPK9 (human) (UniProt P45984)
# PAK1 (human) = PAK1 (human) (UniProt Q13153)
# PRKG2 (human) = PRKG2 (human) (UniProt Q13237)
# PRKCH (human) = PRKCH (human) (UniProt P24723)
# PTK2 (human) = PTK2 (human) (UniProt Q05397)
# PLK3 (human) = PLK3 (human) (UniProt Q9H4B4)
# PRKCA (human) = PRKCA (human) (UniProt P17252)
# FGFR2 (human) = FGFR2 (human) (UniProt P21802)
# CSK (human) = CSK (human) (UniProt P41240)
# BMPR1A (human) = BMPR1A (human) (UniProt P36894)
# PAK7 (human) = PAK7 (human) (UniProt Q9P286)
# PTK2B (human) = PTK2B (human) (UniProt Q14289)
# FGFR4 (human) = FGFR4 (human) (UniProt P22455)
# EPHA6 (human) = EPHA6 (human) (UniProt Q9UF33)
# PAK4 (human) = PAK4 (human) (UniProt O96013)
# TGFBR1 (human) = TGFBR1 (human) (UniProt P36897)
# EPHB2 (human) = EPHB2 (human) (UniProt P29323)
# PIM2 (human) = PIM2 (human) (UniProt Q9P1W9)
# NEK9 (human) = NEK9 (human) (UniProt Q8TD19)
# STK32B (human) = STK32B (human) (UniProt Q9NY57)
# ACVR1B (human) = ACVR1B (human) (UniProt P36896)
# STK32C (human) = STK32C (human) (UniProt Q86UX6)
# PAK3 (human) = PAK3 (human) (UniProt O75914)
# IGF1R (human) = IGF1R (human) (UniProt P08069)
# PTK6 (human) = PTK6 (human) (UniProt Q13882)
# FGFR3 (human) = FGFR3 (human) (UniProt P22607)
# PKMYT1 (human) = PKMYT1 (human) (UniProt Q99640)
# LIMK2 (human) = LIMK2 (human) (UniProt P53671)
# CAMK1 (human) = CAMK1 (human) (UniProt Q14012)
# EPHA7 (human) = EPHA7 (human) (UniProt Q15375)
# EPHB4 (human) = EPHB4 (human) (UniProt P54760)
# CAMK2D (human) = CAMK2D (human) (UniProt Q13557)
# CAMK2G (human) = CAMK2G (human) (UniProt Q13555)
# LTK (human) = LTK (human) (UniProt P29376)
# LTK (human), sequence (P29376 whole entry, looked up): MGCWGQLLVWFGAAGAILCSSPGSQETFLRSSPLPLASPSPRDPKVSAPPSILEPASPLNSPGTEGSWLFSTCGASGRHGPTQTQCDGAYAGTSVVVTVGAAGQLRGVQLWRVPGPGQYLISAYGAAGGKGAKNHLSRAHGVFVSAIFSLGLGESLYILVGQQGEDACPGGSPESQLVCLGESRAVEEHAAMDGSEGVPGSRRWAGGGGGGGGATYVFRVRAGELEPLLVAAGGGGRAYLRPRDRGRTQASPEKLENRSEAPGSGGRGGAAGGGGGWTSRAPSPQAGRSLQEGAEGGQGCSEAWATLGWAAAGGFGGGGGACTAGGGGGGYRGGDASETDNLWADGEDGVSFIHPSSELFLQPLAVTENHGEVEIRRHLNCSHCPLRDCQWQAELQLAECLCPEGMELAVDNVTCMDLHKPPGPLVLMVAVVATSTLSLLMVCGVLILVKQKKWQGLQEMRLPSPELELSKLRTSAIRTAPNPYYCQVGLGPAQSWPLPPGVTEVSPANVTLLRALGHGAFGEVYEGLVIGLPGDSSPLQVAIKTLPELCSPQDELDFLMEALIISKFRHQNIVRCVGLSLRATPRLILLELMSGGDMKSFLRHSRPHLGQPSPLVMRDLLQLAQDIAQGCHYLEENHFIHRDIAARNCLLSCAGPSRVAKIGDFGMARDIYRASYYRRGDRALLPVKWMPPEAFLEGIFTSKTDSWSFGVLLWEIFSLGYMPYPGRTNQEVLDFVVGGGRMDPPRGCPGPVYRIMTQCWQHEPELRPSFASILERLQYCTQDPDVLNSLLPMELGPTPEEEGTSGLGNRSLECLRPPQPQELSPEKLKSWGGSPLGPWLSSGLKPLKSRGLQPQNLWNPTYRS
# PRKCH (human), sequence (P24723 whole entry, looked up): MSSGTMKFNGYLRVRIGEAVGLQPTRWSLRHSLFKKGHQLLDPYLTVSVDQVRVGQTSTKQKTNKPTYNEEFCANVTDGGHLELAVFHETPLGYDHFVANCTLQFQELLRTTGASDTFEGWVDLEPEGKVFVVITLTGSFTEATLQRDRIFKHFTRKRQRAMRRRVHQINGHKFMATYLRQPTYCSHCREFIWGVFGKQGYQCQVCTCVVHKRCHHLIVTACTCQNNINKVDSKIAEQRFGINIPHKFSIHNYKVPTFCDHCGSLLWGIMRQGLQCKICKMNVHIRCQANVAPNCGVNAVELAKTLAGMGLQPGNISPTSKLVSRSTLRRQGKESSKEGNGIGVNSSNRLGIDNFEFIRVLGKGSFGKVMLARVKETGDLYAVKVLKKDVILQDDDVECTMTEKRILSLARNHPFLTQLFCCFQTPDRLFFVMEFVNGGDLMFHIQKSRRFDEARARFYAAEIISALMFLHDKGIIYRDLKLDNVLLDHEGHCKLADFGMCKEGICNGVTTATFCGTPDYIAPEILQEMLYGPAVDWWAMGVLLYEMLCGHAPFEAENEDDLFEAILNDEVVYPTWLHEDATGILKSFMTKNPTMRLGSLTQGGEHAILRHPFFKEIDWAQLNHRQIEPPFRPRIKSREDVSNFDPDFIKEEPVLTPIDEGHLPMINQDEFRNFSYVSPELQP
# PAK1 (human), sequence (Q13153 whole entry, looked up): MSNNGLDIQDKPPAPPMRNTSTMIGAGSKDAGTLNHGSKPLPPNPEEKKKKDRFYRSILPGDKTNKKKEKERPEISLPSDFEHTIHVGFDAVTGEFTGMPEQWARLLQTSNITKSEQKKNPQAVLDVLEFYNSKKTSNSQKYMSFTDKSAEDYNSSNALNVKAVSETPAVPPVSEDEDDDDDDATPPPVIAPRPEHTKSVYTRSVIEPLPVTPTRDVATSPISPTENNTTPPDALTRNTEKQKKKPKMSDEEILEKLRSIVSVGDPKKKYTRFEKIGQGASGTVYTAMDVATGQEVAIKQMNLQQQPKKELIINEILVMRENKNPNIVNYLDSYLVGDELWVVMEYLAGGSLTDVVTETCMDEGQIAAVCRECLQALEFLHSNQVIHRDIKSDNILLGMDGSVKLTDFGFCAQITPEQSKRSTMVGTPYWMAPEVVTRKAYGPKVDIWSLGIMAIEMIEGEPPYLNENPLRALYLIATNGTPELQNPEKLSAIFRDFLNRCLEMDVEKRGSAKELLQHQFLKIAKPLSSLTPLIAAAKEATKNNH
# PLK3 (human), sequence (Q9H4B4 whole entry, looked up): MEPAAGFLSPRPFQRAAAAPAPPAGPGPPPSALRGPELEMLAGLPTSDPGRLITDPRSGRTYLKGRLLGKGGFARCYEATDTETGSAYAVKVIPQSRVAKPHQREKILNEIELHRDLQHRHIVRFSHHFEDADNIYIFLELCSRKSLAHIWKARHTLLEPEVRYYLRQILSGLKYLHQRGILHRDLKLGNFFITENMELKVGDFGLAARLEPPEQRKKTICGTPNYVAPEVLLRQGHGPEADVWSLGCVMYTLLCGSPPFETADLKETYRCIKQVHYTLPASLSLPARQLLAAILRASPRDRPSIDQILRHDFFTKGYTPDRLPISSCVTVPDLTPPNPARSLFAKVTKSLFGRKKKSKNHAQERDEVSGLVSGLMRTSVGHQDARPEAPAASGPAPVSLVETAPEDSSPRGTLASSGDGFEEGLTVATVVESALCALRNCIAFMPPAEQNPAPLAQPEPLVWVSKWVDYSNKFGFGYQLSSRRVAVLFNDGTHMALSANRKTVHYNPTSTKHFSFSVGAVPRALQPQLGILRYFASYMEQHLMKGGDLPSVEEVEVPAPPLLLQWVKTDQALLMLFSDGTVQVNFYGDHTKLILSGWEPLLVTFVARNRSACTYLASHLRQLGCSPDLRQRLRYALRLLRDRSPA
# FGFR4 (human), sequence (P22455 whole entry, looked up): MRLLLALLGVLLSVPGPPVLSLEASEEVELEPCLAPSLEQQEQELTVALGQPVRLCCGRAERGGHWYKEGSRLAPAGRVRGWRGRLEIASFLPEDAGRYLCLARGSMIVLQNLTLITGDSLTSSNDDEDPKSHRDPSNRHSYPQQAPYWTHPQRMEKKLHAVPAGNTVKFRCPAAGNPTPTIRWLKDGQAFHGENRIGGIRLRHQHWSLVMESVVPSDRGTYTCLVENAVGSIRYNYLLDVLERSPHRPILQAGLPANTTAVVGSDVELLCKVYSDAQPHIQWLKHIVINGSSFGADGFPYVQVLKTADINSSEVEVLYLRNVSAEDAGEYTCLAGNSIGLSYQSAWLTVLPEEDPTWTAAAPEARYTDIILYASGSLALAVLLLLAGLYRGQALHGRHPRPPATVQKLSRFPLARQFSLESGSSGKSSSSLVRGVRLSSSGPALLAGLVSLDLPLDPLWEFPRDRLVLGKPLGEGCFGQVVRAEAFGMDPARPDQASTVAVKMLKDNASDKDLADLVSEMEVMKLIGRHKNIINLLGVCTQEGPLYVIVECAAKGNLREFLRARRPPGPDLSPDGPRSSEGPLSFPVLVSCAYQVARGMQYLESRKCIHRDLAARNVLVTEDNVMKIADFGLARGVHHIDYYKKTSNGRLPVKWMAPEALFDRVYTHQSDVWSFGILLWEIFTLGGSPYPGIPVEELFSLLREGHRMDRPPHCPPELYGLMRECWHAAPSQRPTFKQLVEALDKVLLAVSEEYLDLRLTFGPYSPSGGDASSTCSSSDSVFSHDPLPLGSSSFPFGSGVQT
# FGFR3 (human), sequence (P22607 whole entry, looked up): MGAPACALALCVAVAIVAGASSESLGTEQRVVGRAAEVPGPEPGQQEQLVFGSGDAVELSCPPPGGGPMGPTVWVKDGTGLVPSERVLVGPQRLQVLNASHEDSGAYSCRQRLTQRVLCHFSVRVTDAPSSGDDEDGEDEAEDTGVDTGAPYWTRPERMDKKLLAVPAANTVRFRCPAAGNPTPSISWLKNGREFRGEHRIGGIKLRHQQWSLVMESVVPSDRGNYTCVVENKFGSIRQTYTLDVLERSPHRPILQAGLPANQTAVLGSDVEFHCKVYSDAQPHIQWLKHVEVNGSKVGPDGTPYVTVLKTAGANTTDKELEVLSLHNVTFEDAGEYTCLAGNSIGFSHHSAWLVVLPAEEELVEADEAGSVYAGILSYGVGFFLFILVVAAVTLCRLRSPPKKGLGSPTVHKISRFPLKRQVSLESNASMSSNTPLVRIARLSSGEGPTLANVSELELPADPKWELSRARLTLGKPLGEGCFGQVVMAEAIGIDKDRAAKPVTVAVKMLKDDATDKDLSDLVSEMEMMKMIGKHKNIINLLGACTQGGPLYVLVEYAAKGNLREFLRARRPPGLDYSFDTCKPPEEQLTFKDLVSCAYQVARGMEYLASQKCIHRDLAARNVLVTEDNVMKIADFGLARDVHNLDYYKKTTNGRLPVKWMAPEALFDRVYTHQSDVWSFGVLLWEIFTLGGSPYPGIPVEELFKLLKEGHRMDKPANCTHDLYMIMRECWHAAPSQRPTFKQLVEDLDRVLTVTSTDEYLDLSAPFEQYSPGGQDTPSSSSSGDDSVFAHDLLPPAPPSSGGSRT
# LIMK2 (human), sequence (P53671 whole entry, looked up): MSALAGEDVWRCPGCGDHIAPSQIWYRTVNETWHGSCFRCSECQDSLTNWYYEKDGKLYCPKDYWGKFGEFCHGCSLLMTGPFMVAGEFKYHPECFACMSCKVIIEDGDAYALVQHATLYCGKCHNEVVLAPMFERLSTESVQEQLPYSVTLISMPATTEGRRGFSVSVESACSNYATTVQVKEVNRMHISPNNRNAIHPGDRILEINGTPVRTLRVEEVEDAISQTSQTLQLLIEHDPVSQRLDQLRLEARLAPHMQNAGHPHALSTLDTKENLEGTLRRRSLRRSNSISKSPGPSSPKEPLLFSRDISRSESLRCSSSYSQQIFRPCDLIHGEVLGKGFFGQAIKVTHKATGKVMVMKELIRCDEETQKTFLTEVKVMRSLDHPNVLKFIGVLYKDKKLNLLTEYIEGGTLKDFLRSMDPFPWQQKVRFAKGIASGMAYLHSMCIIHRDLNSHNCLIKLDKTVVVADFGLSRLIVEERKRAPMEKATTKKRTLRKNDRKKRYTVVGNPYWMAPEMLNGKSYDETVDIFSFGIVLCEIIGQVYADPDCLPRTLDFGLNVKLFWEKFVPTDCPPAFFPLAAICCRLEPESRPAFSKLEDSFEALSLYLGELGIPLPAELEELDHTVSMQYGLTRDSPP
compound,measurement,setting,value
CCS(=O)(=O)Nc1ccc2c(c1)[C@H](/C(=N/c1ccc(CN3CCCCC3)cc1)c1ccccc1)C(=O)N2,"kinase still bound, per cent of control",[1],1.8%
same,"kinase still bound, per cent of control",DMPK (human),no effect (inactive)
same,"kinase still bound, per cent of control",RIPK2 (human),6.9%
same,"kinase still bound, per cent of control",PRKACB (human),7%
same,"kinase still bound, per cent of control",PHKG1 (human),0.1%
same,"kinase still bound, per cent of control",TXK (human),0%
same,"kinase still bound, per cent of control",PHKG2 (human),0%
same,"kinase still bound, per cent of control",MAPK9 (human),0.1%
same,"kinase still bound, per cent of control",PAK1 (human),4.9%
same,"kinase still bound, per cent of control",PRKG2 (human),0%
same,"kinase still bound, per cent of control",PRKCH (human),19.2%
same,"kinase still bound, per cent of control",PTK2 (human),0%
same,"kinase still bound, per cent of control",PLK3 (human),no effect (inactive)
same,"kinase still bound, per cent of control",PRKCA (human),2.5%
same,"kinase still bound, per cent of control",FGFR2 (human),0.1%
same,"kinase still bound, per cent of control",CSK (human),0%
same,"kinase still bound, per cent of control",BMPR1A (human),4.35%
same,"kinase still bound, per cent of control",PAK7 (human),0%
same,"kinase still bound, per cent of control",PTK2B (human),0%
same,"kinase still bound, per cent of control",FGFR4 (human),0%
same,"kinase still bound, per cent of control",EPHA6 (human),0%
same,"kinase still bound, per cent of control",PAK4 (human),0.2%
same,"kinase still bound, per cent of control",TGFBR1 (human),0%
same,"kinase still bound, per cent of control",EPHB2 (human),0.15%
same,"kinase still bound, per cent of control",PIM2 (human),no effect (inactive)
same,"kinase still bound, per cent of control",NEK9 (human),no effect (inactive)
same,"kinase still bound, per cent of control",STK32B (human),15.4%
same,"kinase still bound, per cent of control",ACVR1B (human),2%
same,"kinase still bound, per cent of control",STK32C (human),no effect (inactive)
same,"kinase still bound, per cent of control",PAK3 (human),0%
same,"kinase still bound, per cent of control",IGF1R (human),0%
same,"kinase still bound, per cent of control",PTK6 (human),1.8%
same,"kinase still bound, per cent of control",FGFR3 (human),0%
same,"kinase still bound, per cent of control",PKMYT1 (human),no effect (inactive)
same,"kinase still bound, per cent of control",LIMK2 (human),no effect (inactive)
same,"kinase still bound, per cent of control",CAMK1 (human),8.3%
same,"kinase still bound, per cent of control",EPHA7 (human),0%
same,"kinase still bound, per cent of control",EPHB4 (human),0.7%
same,"kinase still bound, per cent of control",CAMK2D (human),2%
same,"kinase still bound, per cent of control",CAMK2G (human),0.2%
same,"kinase still bound, per cent of control",LTK (human),0%
NC(=O)c1ccc(-c2cc(C(N)=O)c(N)c(-c3ccc(S(N)(=O)=O)cc3)c2)cc1,"kinase still bound, per cent of control",[1],no effect (inactive)
same,"kinase still bound, per cent of control",DMPK (human),no effect (inactive)
same,"kinase still bound, per cent of control",RIPK2 (human),no effect (inactive)
same,"kinase still bound, per cent of control",PHKG1 (human),no effect (inactive)
same,"kinase still bound, per cent of control",TXK (human),no effect (inactive)
same,"kinase still bound, per cent of control",PHKG2 (human),no effect (inactive)
same,"kinase still bound, per cent of control",MAPK9 (human),no effect (inactive)
same,"kinase still bound, per cent of control",PAK1 (human),no effect (inactive)
same,"kinase still bound, per cent of control",PRKG2 (human),no effect (inactive)
same,"kinase still bound, per cent of control",PRKCH (human),no effect (inactive)
same,"kinase still bound, per cent of control",PTK2 (human),no effect (inactive)
same,"kinase still bound, per cent of control",PLK3 (human),no effect (inactive)
same,"kinase still bound, per cent of control",FGFR2 (human),no effect (inactive)
same,"kinase still bound, per cent of control",CSK (human),no effect (inactive)
same,"kinase still bound, per cent of control",BMPR1A (human),no effect (inactive)
same,"kinase still bound, per cent of control",PAK7 (human),no effect (inactive)
same,"kinase still bound, per cent of control",PTK2B (human),no effect (inactive)
same,"kinase still bound, per cent of control",FGFR4 (human),no effect (inactive)
same,"kinase still bound, per cent of control",EPHA6 (human),no effect (inactive)
same,"kinase still bound, per cent of control",PAK4 (human),no effect (inactive)
same,"kinase still bound, per cent of control",TGFBR1 (human),no effect (inactive)
same,"kinase still bound, per cent of control",EPHB2 (human),no effect (inactive)
same,"kinase still bound, per cent of control",PIM2 (human),no effect (inactive)
same,"kinase still bound, per cent of control",NEK9 (human),no effect (inactive)
same,"kinase still bound, per cent of control",STK32B (human),no effect (inactive)
same,"kinase still bound, per cent of control",ACVR1B (human),no effect (inactive)
same,"kinase still bound, per cent of control",STK32C (human),no effect (inactive)
same,"kinase still bound, per cent of control",PAK3 (human),no effect (inactive)
same,"kinase still bound, per cent of control",IGF1R (human),no effect (inactive)
same,"kinase still bound, per cent of control",PTK6 (human),no effect (inactive)
same,"kinase still bound, per cent of control",FGFR3 (human),no effect (inactive)
same,"kinase still bound, per cent of control",PKMYT1 (human),no effect (inactive)
same,"kinase still bound, per cent of control",LIMK2 (human),no effect (inactive)
same,"kinase still bound, per cent of control",CAMK1 (human),no effect (inactive)
same,"kinase still bound, per cent of control",EPHA7 (human),no effect (inactive)
same,"kinase still bound, per cent of control",EPHB4 (human),no effect (inactive)
same,"kinase still bound, per cent of control",CAMK2D (human),no effect (inactive)
same,"kinase still bound, per cent of control",CAMK2G (human),no effect (inactive)
same,"kinase still bound, per cent of control",LTK (human),no effect (inactive)
